Test results: publication PMC5218480 (PLoS ONE, 2017)

System: MV-4-11 cells
Experiment: Gene expression microarray analysis (Affymetrix PrimeView) and GSEA
Format: cell-based, human
Design: RFU PODN (11730768_x_at) / Fold change /veh PODN (11730768_x_at) / RFU LINC00158 (11744669_a_at) / Fold change /veh LINC00158 (11744669_a_at) / RFU DUSP10 (11751237_a_at) / Fold change /veh DUSP10 (11751237_a_at) / RFU ID3 (11757404_x_at) / Fold change /veh ID3 (11757404_x_at) / RFU PLEKHG5 (11737974_s_at) / Fold change /veh PLEKHG5 (11737974_s_at) / RFU LRRC4B (11730491_at) / Fold change /veh LRRC4B (11730491_at) / RFU GIMAP4 (11747438_a_at) / Fold change /veh GIMAP4 (11747438_a_at) / RFU KRT8 (11758183_x_at) / Fold change /veh KRT8 (11758183_x_at) / RFU CNN1 (11734310_a_at) / Fold change /veh CNN1 (11734310_a_at) / RFU VPS37D (11726825_at) / Fold change /veh VPS37D (11726825_at) / RFU C10orf10 (11716522_x_at) / Fold change /veh C10orf10 (11716522_x_at) / RFU KIR2DL2 /// KIR2DL4 /// KIR2DL5A /// KIR2DL5B /// KIR2DS1 /// KIR2DS2 /// KIR2DS3 /// KIR2DS4 /// KIR3DL3 /// KIR3DL3 /// KIR3DS1 (11738374_at) / Fold change /veh KIR2DL2 /// KIR2DL4 /// KIR2DL5A /// KIR2DL5B /// KIR2DS1 /// KIR2DS2 /// KIR2DS3 /// KIR2DS4 /// KIR3DL3 /// KIR3DL3 /// KIR3DS1 (11738374_at) / RFU C1QL1 (11718748_at) / Fold change /veh C1QL1 (11718748_at) / RFU TMPRSS4 (11747572_a_at) / Fold change /veh TMPRSS4 (11747572_a_at) / RFU HAMP (11756126_x_at) / Fold change /veh HAMP (11756126_x_at) / RFU RNFT2 (11725882_a_at) / Fold change /veh RNFT2 (11725882_a_at) / RFU NR4A2 (11747474_a_at) / Fold change /veh NR4A2 (11747474_a_at) / RFU ABCC12 (11746883_a_at) / Fold change /veh ABCC12 (11746883_a_at) / RFU TMEM136 (11760407_x_at) / Fold change /veh TMEM136 (11760407_x_at) / RFU CLDN22 /// WWC2 (11732394_at) / Fold change /veh CLDN22 /// WWC2 (11732394_at) / RFU HLA-DPB1 (11760878_x_at) / Fold change /veh HLA-DPB1 (11760878_x_at) / RFU SPINT1 (11716480_a_at) / Fold change /veh SPINT1 (11716480_a_at) / RFU GAP43 (11754022_s_at) / Fold change /veh GAP43 (11754022_s_at) / RFU A4GNT (11735810_at) / Fold change /veh A4GNT (11735810_at) / RFU PRB3 (11715151_x_at) / Fold change /veh PRB3 (11715151_x_at) / RFU TUBB4B (11761932_at) / Fold change /veh TUBB4B (11761932_at) / RFU CAPN14 (11732068_a_at) / Fold change /veh CAPN14 (11732068_a_at) / RFU TMCC2 (11721928_a_at) / Fold change /veh TMCC2 (11721928_a_at) / RFU IRGQ (11745062_a_at) / Fold change /veh IRGQ (11745062_a_at) / RFU FAM174B (11720279_a_at) / Fold change /veh FAM174B (11720279_a_at) / RFU TMPRSS4 (11748680_a_at) / Fold change /veh TMPRSS4 (11748680_a_at) / RFU FAM212B (11763350_a_at) / Fold change /veh FAM212B (11763350_a_at) / RFU PLEKHG5 (11743358_a_at) / Fold change /veh PLEKHG5 (11743358_a_at) / RFU ZSCAN30 (11745921_a_at) / Fold change /veh ZSCAN30 (11745921_a_at) / RFU CMKLR1 (11741424_a_at) / Fold change /veh CMKLR1 (11741424_a_at) / RFU LOC101060620 /// MAPK8IP1 (11723275_at) / Fold change /veh LOC101060620 /// MAPK8IP1 (11723275_at) / RFU SPTSSB (11747773_x_at) / Fold change /veh SPTSSB (11747773_x_at) / RFU PRSS12 (11739890_at) / Fold change /veh PRSS12 (11739890_at) / RFU BIN1 (11741810_x_at) / Fold change /veh BIN1 (11741810_x_at) / RFU WNT11 (11732464_a_at) / Fold change /veh WNT11 (11732464_a_at) / RFU C10orf10 (11716521_a_at) / Fold change /veh C10orf10 (11716521_a_at) / RFU C5orf56 (11738089_at) / Fold change /veh C5orf56 (11738089_at) / RFU CYB561 (11721691_x_at) / Fold change /veh CYB561 (11721691_x_at) / RFU ANKRD19P (11752326_a_at) / Fold change /veh ANKRD19P (11752326_a_at) / RFU OR2T12 /// OR2T33 /// OR2T8 (11738714_s_at) / Fold change /veh OR2T12 /// OR2T33 /// OR2T8 (11738714_s_at) / RFU VCAN (11748164_a_at) / Fold change /veh VCAN (11748164_a_at) / RFU JSRP1 (11732532_at) / Fold change /veh JSRP1 (11732532_at) / RFU KRTAP10-11 (11738290_x_at) / Fold change /veh KRTAP10-11 (11738290_x_at) / RFU MYO3A (11730013_a_at) / Fold change /veh MYO3A (11730013_a_at) / RFU EBF3 (11725865_a_at) / Fold change /veh EBF3 (11725865_a_at) / RFU CAMK2N1 (11719241_x_at) / Fold change /veh CAMK2N1 (11719241_x_at) / RFU C5orf56 (11738088_a_at) / Fold change /veh C5orf56 (11738088_a_at) / RFU OLFML3 (11715873_a_at) / Fold change /veh OLFML3 (11715873_a_at) / RFU LOC100653217 /// NTM (11731650_a_at) / Fold change /veh LOC100653217 /// NTM (11731650_a_at) / RFU MAPK11 (11762145_a_at) / Fold change /veh MAPK11 (11762145_a_at) / RFU FIZ1 (11724087_x_at) / Fold change /veh FIZ1 (11724087_x_at) / RFU OASL (11726364_x_at) / Fold change /veh OASL (11726364_x_at) / RFU SOX15 (11748057_x_at) / Fold change /veh SOX15 (11748057_x_at) / RFU CD79A (11719716_a_at) / Fold change /veh CD79A (11719716_a_at) / RFU HIST1H1D (11736915_at) / Fold change /veh HIST1H1D (11736915_at) / RFU CASKIN2 (11723855_a_at) / Fold change /veh CASKIN2 (11723855_a_at) / RFU LOC730098 (11760151_x_at) / Fold change /veh LOC730098 (11760151_x_at) / RFU OR4N2 (11742367_at) / Fold change /veh OR4N2 (11742367_at) / RFU PRRT2 (11749266_a_at) / Fold change /veh PRRT2 (11749266_a_at) / RFU SNX32 (11753110_a_at) / Fold change /veh SNX32 (11753110_a_at) / RFU CDHR5 (11726645_a_at) / Fold change /veh CDHR5 (11726645_a_at) / RFU RCAN1 (11760418_a_at) / Fold change /veh RCAN1 (11760418_a_at) / RFU FAM167A (11723789_a_at) / Fold change /veh FAM167A (11723789_a_at) / RFU FAM26E (11764081_at) / Fold change /veh FAM26E (11764081_at) / RFU ISYNA1 (11749810_s_at) / Fold change /veh ISYNA1 (11749810_s_at) / RFU ACY1 (11761880_at) / Fold change /veh ACY1 (11761880_at) / RFU 11764098_at / Fold change /veh 11764098_at / RFU SAMD14 (11745864_x_at) / Fold change /veh SAMD14 (11745864_x_at) / RFU NPB (11741838_a_at) / Fold change /veh NPB (11741838_a_at) / RFU TMPRSS6 (11731388_a_at) / Fold change /veh TMPRSS6 (11731388_a_at) / RFU KRTAP10-2 (11738614_at) / Fold change /veh KRTAP10-2 (11738614_at) / RFU ARHGAP8 /// PRR5-ARHGAP8 (11727945_x_at) / Fold change /veh ARHGAP8 /// PRR5-ARHGAP8 (11727945_x_at) / RFU KRTAP5-7 /// NADSYN1 (11734609_at) / Fold change /veh KRTAP5-7 /// NADSYN1 (11734609_at) / RFU RASL12 (11751679_a_at) / Fold change /veh RASL12 (11751679_a_at) / RFU CDKN2B (11736163_a_at) / Fold change /veh CDKN2B (11736163_a_at) / RFU PRF1 (11729649_at) / Fold change /veh PRF1 (11729649_at) / RFU, ZNF638 /// ZNF638-IT1 / Fold change vs veh, ZNF638 /// ZNF638-IT1 / RFU, PANK3 / Fold change vs veh, PANK3 / RFU, SH3YL1 / Fold change vs veh, SH3YL1 / RFU, ZEB2 / Fold change vs veh, ZEB2 / RFU, NRIP1 / Fold change vs veh, NRIP1 / RFU, PTTG1IP / Fold change vs veh, PTTG1IP / RFU, CAPN2 / Fold change vs veh, CAPN2 / RFU, MED14 / Fold change vs veh, MED14 / RFU, SNORA58 / Fold change vs veh, SNORA58 / RFU, C1orf63 / Fold change vs veh, C1orf63 / RFU, LRRFIP1 / Fold change vs veh, LRRFIP1 / RFU, NDUFAF7 / Fold change vs veh, NDUFAF7 / RFU, SLC12A2 / Fold change vs veh, SLC12A2 / RFU, IBTK / Fold change vs veh, IBTK / RFU, ESF1 / Fold change vs veh, ESF1 / Fold change vs veh, TMEM50B / RFU, TAOK1 / Fold change vs veh, TAOK1 / RFU, ACBD3 / Fold change vs veh, ACBD3 / RFU, TMA16 / Fold change vs veh, TMA16 / RFU, RWDD3 / Fold change vs veh, RWDD3 / RFU, BCAT1 / Fold change vs veh, BCAT1 / RFU, EDEM3 / Fold change vs veh, EDEM3 / RFU, TMEM33 / Fold change vs veh, TMEM33 / RFU, WDR75 / Fold change vs veh, WDR75 / RFU, AHCTF1 / Fold change vs veh, AHCTF1 / RFU, TFRC / Fold change vs veh, TFRC / RFU, ZDHHC17 / Fold change vs veh, ZDHHC17 / RFU, NOM1 / Fold change vs veh, NOM1 / RFU, ARL8B / Fold change vs veh, ARL8B / RFU, ZBTB11 / Fold change vs veh, ZBTB11 / RFU, TAMM41 / Fold change vs veh, TAMM41 / RFU, KIAA1704 /// LOC100996395 / Fold change vs veh, KIAA1704 /// LOC100996395 / RFU, ING1 / Fold change vs veh, ING1 / RFU, TRMT61B / Fold change vs veh, TRMT61B / RFU, FUBP3 / Fold change vs veh, FUBP3 / RFU, TP53 / Fold change vs veh, TP53 / RFU, TNKS2 / Fold change vs veh, TNKS2 / RFU, ZFP14 / Fold change vs veh, ZFP14 / RFU, ACTR2 / Fold change vs veh, ACTR2 / RFU, PPP3R1 / Fold change vs veh, PPP3R1 / RFU, PIK3R1 / Fold change vs veh, PIK3R1 / RFU, HNRNPA1 / Fold change vs veh, HNRNPA1 / RFU, RNF170 / Fold change vs veh, RNF170 / RFU, ZNF28 / Fold change vs veh, ZNF28 / RFU, RNGTT / Fold change vs veh, RNGTT / RFU, OGT / Fold change vs veh, OGT / RFU, BRD1 / Fold change vs veh, BRD1 / RFU, MARS / Fold change vs veh, MARS / RFU, ZNF655 / Fold change vs veh, ZNF655 / RFU, FAHD1 / Fold change vs veh, FAHD1 / RFU, BDP1 / Fold change vs veh, BDP1 / RFU, LRRCC1 / Fold change vs veh, LRRCC1 / RFU, ARID1A / Fold change vs veh, ARID1A / RFU, ZNF146 / Fold change vs veh, ZNF146 / RFU, ZNF330 / Fold change vs veh, ZNF330 / RFU, GPN3 / Fold change vs veh, GPN3 / RFU, C9orf123 / Fold change vs veh, C9orf123 / RFU, N4BP2L2 / Fold change vs veh, N4BP2L2 / RFU, ARFIP1 / Fold change vs veh, ARFIP1 / RFU, FAM179B / Fold change vs veh, FAM179B / RFU, BCL10 / Fold change vs veh, BCL10 / RFU, UHRF1BP1L / Fold change vs veh, UHRF1BP1L / RFU, BET1 / Fold change vs veh, BET1 / RFU, CNOT2 / Fold change vs veh, CNOT2 / RFU, ZNF268 / Fold change vs veh, ZNF268 / Fold change vs veh, ZNF507 / RFU, DGCR2 / Fold change vs veh, DGCR2 / RFU, WDSUB1 / Fold change vs veh, WDSUB1 / Fold change vs veh, HSP90B1 /// MIR3652 / RFU, ADSS / Fold change vs veh, ADSS / RFU, GK / Fold change vs veh, GK / RFU, ZNF148 / Fold change vs veh, ZNF148 / RFU, TAF9 / Fold change vs veh, TAF9 / RFU, SLC1A5 / Fold change vs veh, SLC1A5 / RFU, SLMO2 / Fold change vs veh, SLMO2 / RFU, ABCC4 / Fold change vs veh, ABCC4 / RFU, LOC101060439 /// RAP1B / Fold change vs veh, LOC101060439 /// RAP1B / RFU, RFX7 / Fold change vs veh, RFX7 / RFU, GTPBP10 / Fold change vs veh, GTPBP10 / RFU, CNEP1R1 / Fold change vs veh, CNEP1R1 / RFU, BIVM-ERCC5 /// ERCC5 / Fold change vs veh, BIVM-ERCC5 /// ERCC5 / RFU, ILF3 / Fold change vs veh, ILF3 / RFU 11762660_at / Fold change /veh 11762660_at / RFU VCAN (11757783_s_at) / Fold change /veh VCAN (11757783_s_at) / RFU DDX43 (11728927_at) / Fold change /veh DDX43 (11728927_at) / RFU KRT8 (11758188_x_at) / Fold change /veh KRT8 (11758188_x_at) / RFU NKD1 (11759106_at) / Fold change /veh NKD1 (11759106_at) / RFU SRD5A1 (11742802_a_at) / Fold change /veh SRD5A1 (11742802_a_at) / RFU TPSAB1 /// TPSB2 (11721975_s_at) / Fold change /veh TPSAB1 /// TPSB2 (11721975_s_at) / RFU GSTM3 (11746129_a_at) / Fold change /veh GSTM3 (11746129_a_at) / RFU IL23R (11737362_x_at) / Fold change /veh IL23R (11737362_x_at) / RFU TMEM51 (11727254_a_at) / Fold change /veh TMEM51 (11727254_a_at) / RFU PIWIL2 (11732686_x_at) / Fold change /veh PIWIL2 (11732686_x_at) / RFU ORM1 (11744905_x_at) / Fold change /veh ORM1 (11744905_x_at) / RFU CCDC152 (11743942_at) / Fold change /veh CCDC152 (11743942_at) / RFU ECM1 (11717891_a_at) / Fold change /veh ECM1 (11717891_a_at) / RFU IL23R (11748794_a_at) / Fold change /veh IL23R (11748794_a_at) / RFU TNFAIP8L3 (11732012_x_at) / Fold change /veh TNFAIP8L3 (11732012_x_at) / RFU MBOAT4 (11741988_at) / Fold change /veh MBOAT4 (11741988_at) / RFU 11764193_at / Fold change /veh 11764193_at / RFU TMEM53 (11763286_at) / Fold change /veh TMEM53 (11763286_at) / RFU MAGEB2 (11727129_at) / Fold change /veh MAGEB2 (11727129_at) / RFU TMEM200A (11744735_a_at) / Fold change /veh TMEM200A (11744735_a_at) / RFU CCDC152 (11751479_a_at) / Fold change /veh CCDC152 (11751479_a_at) / RFU FAM211A (11726209_a_at) / Fold change /veh FAM211A (11726209_a_at) / RFU RGS16 (11746705_a_at) / Fold change /veh RGS16 (11746705_a_at) / RFU VCAN (11755009_s_at) / Fold change /veh VCAN (11755009_s_at) / RFU RHOB (11743442_s_at) / Fold change /veh RHOB (11743442_s_at) / RFU RGS16 (11720943_a_at) / Fold change /veh RGS16 (11720943_a_at) / RFU RGS16 (11720944_at) / Fold change /veh RGS16 (11720944_at) / RFU, VPS4B / Fold change vs veh, VPS4B / RFU, CREB1 / Fold change vs veh, CREB1 / RFU, DNAJC13 / Fold change vs veh, DNAJC13 / RFU, GNAQ / Fold change vs veh, GNAQ / RFU, CDK5R1 / Fold change vs veh, CDK5R1 / RFU, ZRANB3 / Fold change vs veh, ZRANB3 / RFU, CUL4A / Fold change vs veh, CUL4A / RFU, CCNY / Fold change vs veh, CCNY / RFU, UFL1 / Fold change vs veh, UFL1 / RFU, COG3 / Fold change vs veh, COG3 / RFU, DIAPH2 / Fold change vs veh, DIAPH2 / RFU, SKA2 / Fold change vs veh, SKA2 / RFU, AFF3 / Fold change vs veh, AFF3 / RFU, LMF1 / Fold change vs veh, LMF1 / RFU, IPO11 / Fold change vs veh, IPO11 / RFU, DFFB / Fold change vs veh, DFFB / RFU, FOXP1 / Fold change vs veh, FOXP1 / RFU, CARD8 / Fold change vs veh, CARD8 / RFU, STRN3 / Fold change vs veh, STRN3 / RFU, ADK / Fold change vs veh, ADK / RFU, RASSF2 / Fold change vs veh, RASSF2 / RFU, WIPF1 / Fold change vs veh, WIPF1 / RFU, LARP1B / Fold change vs veh, LARP1B / RFU, RASA1 / Fold change vs veh, RASA1 / RFU, RB1 / Fold change vs veh, RB1 / RFU, PPFIA1 / Fold change vs veh, PPFIA1 / RFU, MAT2A / Fold change vs veh, MAT2A / RFU, CCT5 / Fold change vs veh, CCT5 / RFU, WDR92 / Fold change vs veh, WDR92 / RFU, CUX1 / Fold change vs veh, CUX1 / RFU, TTC7A / Fold change vs veh, TTC7A / RFU, TMEM135 / Fold change vs veh, TMEM135 / RFU, DEPTOR / Fold change vs veh, DEPTOR / RFU, CPM / Fold change vs veh, CPM / RFU, DNAJB6 / Fold change vs veh, DNAJB6 / RFU, CACNA2D3 / Fold change vs veh, CACNA2D3 / RFU, DTX4 / Fold change vs veh, DTX4 / RFU, TFCP2 / Fold change vs veh, TFCP2 / RFU, GMCL1 /// GMCL1P1 / Fold change vs veh, GMCL1 /// GMCL1P1 / RFU, AEBP2 / Fold change vs veh, AEBP2 / RFU, SNHG1 /// SNORD22 /// SNORD25 /// SNORD26 /// SNORD27 /// SNORD28 /// SNORD29 /// SNORD31 / Fold change vs veh, SNHG1 /// SNORD22 /// SNORD25 /// SNORD26 /// SNORD27 /// SNORD28 /// SNORD29 /// SNORD31 / Fold change (Aza/veh), C12orf56 (ProbeSet 11735607_a_at) / Fold change (ACY-1035/veh), C12orf56 (ProbeSet 11735607_a_at) / Fold change (Aza/veh), FGFR1OP (ProbeSet 11751329_s_at) / Fold change (ACY-1035/veh), FGFR1OP (ProbeSet 11751329_s_at) / Fold change (Aza/veh), VPS36 (ProbeSet 11739960_a_at) / Fold change (ACY-1035/veh), VPS36 (ProbeSet 11739960_a_at) / RFU SYPL1 (11715823_x_at) / Fold change /veh SYPL1 (11715823_x_at) / RFU IGFBP7 (11715501_s_at) / Fold change /veh IGFBP7 (11715501_s_at) / RFU REEP3 (11722064_at) / Fold change /veh REEP3 (11722064_at) / RFU IGLL1 (11728026_x_at) / Fold change /veh IGLL1 (11728026_x_at): dose or concentration left out as unconfirmed
Details: ProbeSet 11727958_a_at; LIST B

Nc1ncn([C@@H]2O[C@H](CO)[C@@H](O)[C@H]2O)c(=O)n1 [azacitidine]
RFU, ING1: 72.09 RFU
